The results in this text go back to patent US20250214977A1, “STAT6 INHIBITORS AND USES THEREOF” (Kymera Therapeutics, Inc., priority 2024, published 2025).

Some results are limits rather than exact numbers.

The test system of this test is Phosphorylation of STAT6 in human A549 cells. As to the kind of experiment: Phosphorylated STAT6 (pSTAT6) flow cytometry assay in human A549 cells. Conditions: read-out: STAT6 IL4 pSTAT6 assay in A549 cells: Average IC50. The test is classed as cell-based. The text has this: Example 3. Phosphorylated STAT6 (pSTAT6) Flow Cytometry Assay in Human A549 Cells
Phosphorylation of STAT6 in human A549 cells was quantitatively measured using flow cytometry technology.

As usually defined, the IC50 is the concentration that inhibits the measured activity by half. Regarding “(S)-1-(5-(7-fluoro-2-(4-(5-fluoro-3-methoxypyridin-2-yl)piperazine-1-carbonyl)-4-(1-methylpyrrolidin-3-yl)-1H-indol-6-yl)-3,6-dihydropyridin-1(2H)-yl)-3-(1H-1,2,3-triazol-1-yl)propan-1-one [Example I-811]”, the IC50 is < 100 nM.
Then `CC#Cc1cc(-c2cc(C3=CCCN(C(=O)CCn4ccnn4)C3)c(F)c3[nH]c(C(=O)N4CCN(c5ncc(F)cc5OC)CC4)cc23)ccn1` [Example I-634], with < 100 nM; and `COc1cc(F)cnc1N1CCN(C(=O)c2cc(-c3cccnc3C3CC3)c3[nH]c(C4CCCN(C(=O)CCn5ccnn5)C4)cc3c2)CC1` (centres unmarked) [Example I-1204], with 1000 to 10000 nM.
Then `COc1ccccc1-c1cc(C2=CCCN(C(=O)CCn3ccnn3)C2)c(F)c2[nH]c(C(=O)N3CCN(CC4(C)COC4)CC3)cc12` [Example I-1183], with < 100 nM.
The value for `CCc1ccncc1-c1cc(C2=CCCN(C(=O)CCn3ccnn3)C2)c(F)c2[nH]c(C(=O)N3CCN(C4CC4)CC3)cc12` [Example I-473] was < 100 nM; that for `COc1cnccc1-c1cc(C2=CCCN(C(=O)CCn3ccnn3)C2)c(F)c2[nH]c(C(=O)N3Cc4cnn(C)c4C3)cc12` [Example I-502] was 10000 to 100000 nM.
On to `CC(=O)N1CCC=C(c2cc(-c3cnc4[nH]cc(C)c4c3)c3cc(C(=O)N(C)C)[nH]c3c2F)C1` [Example I-897], for which the IC50 lay in the range of 100 to 1000 nM.
As to `CCCCOc1ccc(-c2cc(C3=CCCN(C(=O)CCn4ccnn4)C3)c(F)c3[nH]c(C(=O)N4CCN(c5ncc(F)cc5OC)CC4)cc23)cc1` [Example I-1127], the IC50 is 100 to 1000 nM.
The value for `COc1ccccc1-c1cc(C2=CCCN(C(=O)CCn3ccnn3)C2)c(F)c2[nH]c(C(=O)N3CCN(c4ncccc4C4CC4)CC3)cc12` [Example I-495] was > 100000 nM.
Then `COc1cc(F)cnc1N1CCN(C(=O)c2cc3c(-c4ccc5c(C)nn(C)c5c4)cc(C4=CCCN(C(=O)CCn5ccnn5)C4)c(F)c3[nH]2)CC1` [Example I-623], with < 100 nM.
For the molecule `COc1ccccc1-c1cc(C2=CCCN(C(=O)CCn3ccnn3)C2)c(F)c2[nH]c(C(=O)N3CCN(CC4(C#N)CC4)CC3)cc12` [Example I-1014], the IC50 was < 100 nM.
Then `COc1cc(F)cnc1N1CCN(C(=O)c2cc3c(C4=CCOC4)cc(C4=CCCN(C(=O)CCn5ccnn5)C4)c(F)c3[nH]2)CC1` [Example I-639], with < 100 nM; and `CCn1ncc2c1CN(C(=O)c1cc3c(-c4ccncc4OC)cc(C4=CCCN(C(C)=O)C4)c(F)c3[nH]1)C2` [Example I-715], with 10000 to 100000 nM.
As to `COc1ccccc1-c1cc(C2CCCN(C(=O)CCn3ccnn3)C2)c(F)c2[nH]c(C(=O)N(C)C)cc12` (centres unmarked) [Example I-1193], the IC50 was < 100 nM.
Then `COc1ccccc1-c1cc(C2=CCCN(C(=O)CCn3ccnn3)C2)c(F)c2[nH]c(C(=O)N3CCc4nocc4C3)cc12` [Example I-1029], with < 100 nM.
Then `COCCCOc1ccc(-c2cc(C3=CCCN(C(=O)CCn4ccnn4)C3)c(F)c3[nH]c(C(=O)N4CCN(c5ncc(F)cc5OC)CC4)cc23)cc1` [Example I-1112], with < 100 nM.
The value for `CCc1nc(C)ccc1-c1cc(C(=O)N2CCN(c3ncc(F)cc3OC)CC2)cc2cc(C3=CCCN(C(=O)CCC(=O)O)C3)n(CC3CC3)c12` [Example I-527] was < 100 nM; that for `COc1cnccc1-c1cc(C2=CCCN(C(=O)CCn3ccnn3)C2)c(F)c2[nH]c(C(=O)N3CCN(c4ccccc4OC)CC3)cc12` [Example I-407] was > 100000 nM.
Take `COc1cnccc1-c1cc(C2=CCCN(C(=O)CCn3ccnn3)C2)c(F)c2[nH]c(C(=O)N3CCN(c4ncccc4OC4CC4)CC3)cc12` [Example I-593]: the IC50 was < 100 nM.
The value for `CCn1c(N2CCN(C(=O)c3cc4c(-c5ccccc5OC)cc(C5=CCCN(C(=O)CCn6ccnn6)C5)c(F)c4[nH]3)CC2)cc2ccccc21` [Example I-967] was 100 to 1000 nM; that for `COc1cc(Cl)cnc1N1CCN(C(=O)c2cc3c(-c4cc(F)cc(F)c4OC)cc(C4=CCCN(C(=O)CCn5ccnn5)C4)c(F)c3[nH]2)CC1` [Example I-462] was 100 to 1000 nM.
Then `CCCN(C)C(=O)c1cc2cc(C3=CCCN(C(=O)CCn4ccnn4)C3)ccc2o1` [Example I-817], with 100 to 1000 nM; and `CCc1ccncc1-c1cc(C2=CCCN(C(=O)CCn3ccnn3)C2)c(F)c2[nH]c(C(=O)N3Cc4cnn(C)c4C3)cc12` [Example I-704], with 10000 to 100000 nM.
`COc1cccnc1N1CCN(C(=O)c2cc3c(-n4ccccc4=O)cc(C4=CCCN(C(=O)CCn5ccnn5)C4)c(F)c3[nH]2)CC1` [Example I-807, 1-(6-(1-(3-(1H-1,2,3-triazol-1-yl)propanoyl)-1,2,5,6-tetrahydropyridin-3-yl)-7-fluoro-2-(4-(3-methoxypyridin-2-yl)piperazine-1-carbonyl)-1H-indol-4-yl)pyridin-2(1H)-one]: the IC50 is < 100 nM.
Then `CN(C)C(=O)c1cc2cc(C3=CCCN(C(=O)CCn4ccnn4)C3)cc(-c3ccc4cncnc4c3)c2o1` [Example I-1089], with < 100 nM; and `COc1ccccc1C(=O)N1CCN(C(=O)c2cc3c(-c4ccccc4OC)cc(C4=CCCN(C(=O)CCn5ccnn5)C4)c(F)c3[nH]2)CC1` [Example I-991], with < 100 nM.
Then `COc1cc(F)cnc1N1CCN(C(=O)c2cc3c(C4=CCN(C(C)C)CC4)cc(C4=CCCN(C(=O)CCn5ccnn5)C4)c(F)c3[nH]2)CC1` [Example I-1133], with < 100 nM.
Then `COc1cc(F)cnc1N1CCN(C(=O)c2cc3c(-c4cccc(C(C)(C)C#N)c4)cc(C4=CCCN(C(=O)CCn5ccnn5)C4)c(F)c3[nH]2)CC1` [Example I-682], with < 100 nM.
`COc1ccncc1-c1cc(C2=CCCN(C(=O)CCn3ccnn3)C2)c(F)c2[nH]c(C(=O)N3CCN(c4cccc(F)c4OC)CC3)cc12` [Example I-563]: the IC50 is < 100 nM.
The value for `CCc1cc(C(F)F)ncc1-c1cc(C2=CCCN(C(=O)CCn3ccnn3)C2)c(F)c2[nH]c(C(=O)N3Cc4cnn(CC)c4C3)cc12` [Example I-767] was > 100000 nM.
For `COc1cc(F)cnc1N1CCN(C(=O)c2cc3c(C4=CCOCC4)cc(C4=CCCN(C(=O)CCn5ccnn5)C4)c(F)c3[nH]2)CC1` [Example I-1156], the IC50 is < 100 nM.
The value for `CCc1cc(C)ncc1-c1cc(C2=CCCN(C(=O)CC(=O)O)C2)c(F)c2[nH]c(C(=O)N3Cc4cnn(CC)c4C3)cc12` [Example I-788] was < 100 nM; that for `COc1cc(F)cnc1N1CCN(C(=O)c2cc3c(-c4ccnc(N5CCOCC5)c4)cc(C4=CCCN(C(=O)CCn5ccnn5)C4)c(F)c3[nH]2)CC1` [Example I-680] was < 100 nM.
Then `COC(=O)CCC#Cc1cccc2c1CC(C(=O)N1CCC=C(c3ccc4oc(C(=O)N(C)C)cc4c3)C1)N(C=O)C2` (centres unmarked) [Example I-802, Methyl 5-(3-(5-(2-(dimethylcarbamoyl)benzofuran-5-yl)-1,2,3,6-tetrahydropyridine-1-carbonyl)-2-formyl-1,2,3,4-tetrahydroisoquinolin-5-yl)pent-4-ynoate], with 100 to 1000 nM; and `COc1ccccc1-c1cc(C2=CCCN(C(=O)CCn3ccnn3)C2)c(F)c2[nH]c(C(=O)N3CCN(c4ncccc4OC(F)(F)F)CC3)cc12` [Example I-331, 1-(5-(7-fluoro-4-(2-methoxyphenyl)-2-(4-(3-(trifluoromethoxy)pyridin-2-yl)piperazine-1-carbonyl)-1H-indol-6-yl)-3,6-dihydropyridin-1(2H)-yl)-3-(1H-1,2,3-triazol-1-yl)propan-1-one], with < 100 nM; and `COc1cc(F)cnc1N1CCN(C(=O)c2cc3c(C4=CCCC4)cc(C4=CCCN(C(=O)CCn5ccnn5)C4)c(F)c3[nH]2)CC1` [Example I-1134], with < 100 nM.
As to `COc1ncccc1-c1cc(C(=O)N2Cc3cnn(C)c3C2)cc2cc(C3=CCCN(C(=O)CC(=O)O)C3)n(CC3CC3)c12` [Example I-791], the IC50 is < 100 nM.
Then `COc1ccncc1-c1cc(C2=CCCN(C(=O)CCn3ccnn3)C2)c(F)c2[nH]c(C(=O)N3CCN(c4ccccc4OC)CC3)cc12` [Example I-565], with < 100 nM.
The value for `COc1cc(F)cnc1N1CCN(C(=O)c2cc3c(-c4ccnc(N5CCN(C)CC5)c4)cc(C4=CCCN(C(=O)CCn5ccnn5)C4)c(F)c3[nH]2)CC1` [Example I-617] was < 100 nM.
The value for `COc1ccccc1-c1cc(C2=CCCN(C(=O)CCn3ccnn3)C2)c(F)c2[nH]c(C(=O)N3CCN(c4ccc(=O)n(C)c4)CC3)cc12` [Example I-971] was < 100 nM; that for “2-(3-(1-(cyclopropylmethyl)-7-(2-ethyl-6-methylpyridin-3-yl)-5-(4-(5-fluoro-3-methoxypyridin-2-yl)piperazine-1-carbonyl)-1H-indol-2-yl)-5,6-dihydropyridin-1(2H)-yl)-2-oxoacetic acid [Example I-1228]” was < 100 nM; that for `COc1ccccc1-c1cc(C2=CCCN(C(=O)CCn3ccnn3)C2)c(F)c2[nH]c(C(=O)N3CCN(c4scnc4C)CC3)cc12` [Example I-777] was < 100 nM.
For the molecule `COc1cccnc1N1CCN(C(=O)c2cc3c(-c4cccc5ccccc45)cc(C4=CCCN(C(=O)CCn5ccnn5)C4)c(F)c3[nH]2)CC1` [Example I-397], the IC50 is > 100000 nM.
The value for `COc1ccccc1-c1cc(C2=CCCN(C(=O)CCn3ccnn3)C2)c(F)c2[nH]c(C(=O)N3CCC(n4c(=O)[nH]c5ncccc54)CC3)cc12` [Example I-981] was 100 to 1000 nM; that for `COc1ccccc1-c1cc(C2=CCCN(C(=O)CCn3ccnn3)C2)c(F)c2[nH]c(C(=O)N3CCN(c4ccc[nH]c4=O)CC3)cc12` [Example I-1003] was < 100 nM; that for `COc1cnccc1-c1cc(C2=CCCN(C(=O)CCn3ccnn3)C2)c(F)c2[nH]c(C(=O)N3CCN(c4ncccc4OC)CC3)cc12` [Example I-366] was < 100 nM.
Take `COc1cc(F)cnc1N1CCN(C(=O)c2cc3c(-c4cccc(-c5cccnc5)c4)cc(C4=CCCN(C(=O)CCn5ccnn5)C4)c(F)c3[nH]2)CC1` [Example I-629]: the IC50 is < 100 nM.
